Columns and labels:
[1] = target: T1, Histone-lysine N-methyltransferase EHMT2 (Homo sapiens, UniProt Q96KQ7); assay: Inhibition of recombinant human G9a using biotinylated-Histone H3 peptide (1 to 21 residues) after 30 mins in presence of SAM by AlphaLISA assay
T1 sequence (Q96KQ7 whole entry): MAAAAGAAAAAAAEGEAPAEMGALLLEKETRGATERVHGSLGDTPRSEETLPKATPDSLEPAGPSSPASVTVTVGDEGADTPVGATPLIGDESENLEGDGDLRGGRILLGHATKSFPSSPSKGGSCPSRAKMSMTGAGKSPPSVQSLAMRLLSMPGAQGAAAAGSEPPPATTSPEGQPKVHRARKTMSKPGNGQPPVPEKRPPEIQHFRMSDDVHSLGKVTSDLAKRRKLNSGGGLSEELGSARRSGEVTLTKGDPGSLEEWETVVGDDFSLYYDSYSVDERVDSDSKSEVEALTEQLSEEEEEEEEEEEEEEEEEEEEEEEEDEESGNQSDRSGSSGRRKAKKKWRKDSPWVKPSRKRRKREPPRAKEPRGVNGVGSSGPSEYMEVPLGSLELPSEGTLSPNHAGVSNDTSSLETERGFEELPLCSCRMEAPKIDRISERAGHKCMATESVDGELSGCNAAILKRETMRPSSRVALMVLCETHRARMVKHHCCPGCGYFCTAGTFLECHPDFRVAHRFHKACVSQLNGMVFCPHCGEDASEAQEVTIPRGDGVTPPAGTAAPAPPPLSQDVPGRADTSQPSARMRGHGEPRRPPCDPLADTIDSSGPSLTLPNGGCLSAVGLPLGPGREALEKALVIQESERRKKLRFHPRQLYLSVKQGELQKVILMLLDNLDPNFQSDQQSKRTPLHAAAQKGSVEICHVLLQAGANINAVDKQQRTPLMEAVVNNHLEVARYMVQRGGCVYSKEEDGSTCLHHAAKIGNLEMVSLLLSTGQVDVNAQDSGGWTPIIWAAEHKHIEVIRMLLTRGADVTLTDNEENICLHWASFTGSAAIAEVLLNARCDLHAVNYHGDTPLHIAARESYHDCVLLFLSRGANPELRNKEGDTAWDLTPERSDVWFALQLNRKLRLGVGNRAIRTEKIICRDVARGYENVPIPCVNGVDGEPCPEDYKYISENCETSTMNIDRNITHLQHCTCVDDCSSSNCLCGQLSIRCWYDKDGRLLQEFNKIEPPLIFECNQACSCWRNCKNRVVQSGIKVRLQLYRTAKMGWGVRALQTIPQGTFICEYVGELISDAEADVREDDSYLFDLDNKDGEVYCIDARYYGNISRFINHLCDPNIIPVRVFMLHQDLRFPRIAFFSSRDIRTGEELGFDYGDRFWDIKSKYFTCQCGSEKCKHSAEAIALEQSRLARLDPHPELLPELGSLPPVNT

[2] = target: T1, Histone-lysine N-methyltransferase EHMT2; assay: Inhibition G9a (unknown origin)
[3] = Metabolic stability in human liver microsomes assessed as parent compound turn over percentage at 1 mM preincubated for 5 mins followed by NADPH addition and measured for 60 mins by UHPLC analysis; assay type: ADME, Microsome; settings: read-out: Drug metabolism
[4] = Apparent permeability of the compound after 24 hrs by BBB-PAMPA; assay type: ADME
[5] = Apparent permeability of the compound after 24 hrs by PAMPA; assay type: ADME

IC50 [1] [nM]	Compound	further results
1090	COc1cc2c(cc1OCCCN1CCCC1)N=C(c1ccccc1)CN=C2NC1CCN(C(C)C)CC1	
	COc1cc2c(NC3CCN(CCCCCN)CC3)nc(NCCCN(C)C)nc2cc1OCCCCCN	IC50 [2]: 160 nM
	COc1cc2c(NC3CCN(C(C)C)CC3)nc(C3CCCCC3)nc2cc1OCCCN1CCCC1	metabolised at 1 h [3]: 2.93%; Papp [4]: 0.19 ×10⁻⁷ cm/s; Papp [5]: 0.49 ×10⁻⁷ cm/s
2090	COc1cc2c(cc1OCCCN1CCCC1)NC(c1ccccc1)CN=C2NC1CCN(C(C)C)CC1 (stereo not drawn)	
955	COc1cc2c(cc1OCCCN1CCCC1)NC(C1CCCCC1)CN=C2NC1CCN(C(C)C)CC1 (stereo not drawn)	
2980	COc1cc2c(cc1OCCCN1CCCC1)N=C(C1CCCCC1)CC(NC1CCN(C(C)C)CC1)=N2	

Source: ChEMBL document CHEMBL4400539, “Discovery of a Novel Chemotype of Histone Lysine Methyltransferase EHMT1/2 (GLP/G9a) Inhibitors: Rational Design, Synthesis, Biological Evaluation, and Co-crystal Structure” (J Med Chem, 2019)
